Experiment [1] deals with T1, AP1G1 AP-1 complex subunit gamma-1 (Homo sapiens, UniProt O43747).
T1 construct: isoTOP-ABPP experiments performed in cell lysates (in vitro); endogenous in cells; host or cells: MDA-MB-231 soluble lysate
T1 sequence (O43747 1-822): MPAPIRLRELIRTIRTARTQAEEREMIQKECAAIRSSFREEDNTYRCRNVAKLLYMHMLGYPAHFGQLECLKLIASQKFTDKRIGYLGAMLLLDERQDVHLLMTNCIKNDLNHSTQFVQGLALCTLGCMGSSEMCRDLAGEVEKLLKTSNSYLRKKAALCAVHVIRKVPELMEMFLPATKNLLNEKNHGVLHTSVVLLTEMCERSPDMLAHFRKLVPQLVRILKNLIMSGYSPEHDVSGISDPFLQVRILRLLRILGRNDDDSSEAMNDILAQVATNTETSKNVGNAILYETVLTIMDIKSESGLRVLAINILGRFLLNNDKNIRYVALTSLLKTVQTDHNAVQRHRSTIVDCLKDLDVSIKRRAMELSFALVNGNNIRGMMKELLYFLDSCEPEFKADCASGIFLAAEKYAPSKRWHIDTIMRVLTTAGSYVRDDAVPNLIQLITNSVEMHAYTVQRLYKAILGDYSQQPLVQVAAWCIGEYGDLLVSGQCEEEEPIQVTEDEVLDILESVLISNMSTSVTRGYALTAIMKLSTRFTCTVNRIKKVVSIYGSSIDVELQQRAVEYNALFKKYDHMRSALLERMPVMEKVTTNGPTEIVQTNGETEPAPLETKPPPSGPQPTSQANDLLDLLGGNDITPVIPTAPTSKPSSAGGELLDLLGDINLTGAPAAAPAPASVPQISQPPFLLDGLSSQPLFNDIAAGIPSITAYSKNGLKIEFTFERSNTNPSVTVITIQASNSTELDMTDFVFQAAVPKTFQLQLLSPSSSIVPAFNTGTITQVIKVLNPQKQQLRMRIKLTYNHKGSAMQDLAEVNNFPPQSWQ
Description: competitive isoTOP-ABPP. It is filed as binding. To be noted: for R value (DMSO/fragment) for probe 1 labeling: O43747_K214; for R value (DMSO/fragment) for probe 1 labeling / isoTOP-ABPP reactivity ratio at lysine O43747_K214 / isoTOP-ABPP ratio (R) at liganded lysine O43747_K214: 50 uM, in vitro; for R value (DMSO/fragment) for probe 1 labeling / isoTOP-ABPP reactivity ratio at lysine O43747_K214: 231 sol; for isoTOP-ABPP ratio (R) at liganded lysine O43747_K214: sol, 231. Put shortly:
(§1)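 Lysine engagement is reported as R, the MS1 peak-area ratio of heavy-tagged DMSO to light-tagged compound samples. Final fragment concentrations were 50 μM for activated esters and 100 μM for guanidinylating agents; STP-alkyne probe 0.1 mM, 1 h.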

The target in experiment [2] is T2, NAA25 N-alpha-acetyltransferase 25, NatB auxiliary subunit (Homo sapiens, UniProt Q14CX7).
T2 construct: isoTOP-ABPP experiments performed in cell lysates (in vitro); endogenous in cells; host or cells: soluble proteome of human cancer cell lines (MDA-MB-231; Ramos and Jurkat also prepared)
T2 sequence (Q14CX7 whole entry): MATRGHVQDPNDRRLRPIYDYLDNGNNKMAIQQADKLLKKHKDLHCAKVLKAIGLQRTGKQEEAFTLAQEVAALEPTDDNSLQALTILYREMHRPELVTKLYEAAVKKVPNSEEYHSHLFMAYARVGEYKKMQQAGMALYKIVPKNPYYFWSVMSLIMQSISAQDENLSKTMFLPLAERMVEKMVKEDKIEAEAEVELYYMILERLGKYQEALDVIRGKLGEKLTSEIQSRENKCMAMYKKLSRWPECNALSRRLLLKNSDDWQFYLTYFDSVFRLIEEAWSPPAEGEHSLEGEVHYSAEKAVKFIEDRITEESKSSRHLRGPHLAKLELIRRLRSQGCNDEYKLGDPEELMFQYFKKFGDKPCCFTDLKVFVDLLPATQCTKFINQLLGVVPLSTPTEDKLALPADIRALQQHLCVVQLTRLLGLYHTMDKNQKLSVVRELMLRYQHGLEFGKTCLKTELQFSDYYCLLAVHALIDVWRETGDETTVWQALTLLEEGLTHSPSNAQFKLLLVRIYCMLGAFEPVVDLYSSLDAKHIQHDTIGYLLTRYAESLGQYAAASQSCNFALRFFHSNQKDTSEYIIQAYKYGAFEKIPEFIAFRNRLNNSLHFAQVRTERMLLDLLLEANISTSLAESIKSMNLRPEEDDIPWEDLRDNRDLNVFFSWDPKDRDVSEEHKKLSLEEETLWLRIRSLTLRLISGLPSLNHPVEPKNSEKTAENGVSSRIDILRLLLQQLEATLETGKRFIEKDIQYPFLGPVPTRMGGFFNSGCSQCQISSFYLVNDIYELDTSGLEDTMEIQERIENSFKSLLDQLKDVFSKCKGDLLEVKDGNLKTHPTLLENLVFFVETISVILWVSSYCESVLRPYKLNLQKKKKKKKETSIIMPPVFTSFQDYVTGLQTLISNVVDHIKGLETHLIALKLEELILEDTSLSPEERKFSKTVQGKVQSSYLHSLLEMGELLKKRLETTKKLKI
In words: competitive isoTOP-ABPP. In kind it is binding. To be noted: for R value (DMSO/fragment) for probe 1 labeling: Q14CX7_K575; for R value (DMSO/fragment) for probe 1 labeling / isoTOP-ABPP reactivity ratio at lysine Q14CX7_K575 / isoTOP-ABPP ratio (R) at liganded lysine Q14CX7_K575: 50 uM, in vitro; for R value (DMSO/fragment) for probe 1 labeling / isoTOP-ABPP reactivity ratio at lysine Q14CX7_K575: 231 sol; for isoTOP-ABPP ratio (R) at liganded lysine Q14CX7_K575: sol, 231. A digest of the protocol: as §1

Regarding `O=C(CCc1cn(-c2ccccc2)nc1-c1ccccc1)Oc1c(F)c(F)c(F)c(F)c1F` [fragment 19, Pentafluorophenyl 3-(1,3-diphenyl-1H-pyrazol-4-yl)propanoate], the “R value (DMSO/fragment) for probe 1 labeling” value (“R value (DMSO/fragment)” for short) in experiment [1] and in experiment [2] was 1.0 throughout.

`O=C(Oc1c(F)c(F)c(F)c(F)c1F)C(c1ccccc1)c1ccccc1` [fragment 20, Pentafluorophenyl 2,2-diphenylacetate]: the “R value (DMSO/fragment)” value is on record as 0.9 in experiment [1] and 1.1 in experiment [2].

Take `O=C(Oc1c(F)c(F)c(F)c(F)c1F)c1cc(C(F)(F)F)cc(C(F)(F)F)c1` [fragment 21, Pentafluorophenyl 3,5-bis(trifluoromethyl)benzoate]: the “R value (DMSO/fragment)” value in experiment [1] and in experiment [2] was 0.9 in each case.

Regarding `Cn1cc(CC(=O)Oc2c(F)c(F)c(F)c(F)c2F)c2ccccc21` [fragment 22, Pentafluorophenyl 2-(1-methyl-1H-indol-3-yl)acetate], the “R value (DMSO/fragment)” value in experiment [1] was 1.1; in experiment [2] it was 2.2.

Turning to `COc1cc(CCC(=O)Oc2c(F)c(F)c(F)c(F)c2F)cc(OC)c1OC` [fragment 23, Pentafluorophenyl 3-(3,4,5-trimethoxyphenyl)propanoate], the “R value (DMSO/fragment)” value in experiment [1] stood at 1.1.

For the molecule `O=C(Oc1c(F)c(F)c(F)c(F)c1F)C1CCN(C(=O)OCc2ccccc2)CC1` [fragment 24, 1-Benzyl 4-(pentafluorophenyl) piperidine-1,4-dicarboxylate], in experiment [1], the “isoTOP-ABPP reactivity ratio at lysine O43747_K214” value is reported as 1.0. Moreover, in experiment [2], the “isoTOP-ABPP reactivity ratio at lysine Q14CX7_K575” value is reported as 1.1.

Take `O=C(Oc1c(F)c(F)c(F)c(F)c1F)c1ccc2ccccc2n1` [fragment 25, Pentafluorophenyl quinoline-2-carboxylate]: the “isoTOP-ABPP reactivity ratio at lysine O43747_K214” value in experiment [1] came out at 1.0. The “isoTOP-ABPP reactivity ratio at lysine Q14CX7_K575” value in experiment [2] stood at 0.9.

For `O=C(CCc1coc2cc(F)ccc2c1=O)Oc1c(F)c(F)c(F)c(F)c1F` [fragment 26, Pentafluorophenyl 3-(7-fluoro-4-oxo-4H-chromen-3-yl)propanoate], in experiment [1], the “isoTOP-ABPP reactivity ratio at lysine O43747_K214” value was 1.1. In addition, in experiment [2], the “isoTOP-ABPP reactivity ratio at lysine Q14CX7_K575” value was 0.9.

On to `O=C(CN1C(=O)c2ccccc2C1=O)Oc1c(F)c(F)c(F)c(F)c1F` [fragment 27, Pentafluorophenyl 2-(1,3-dioxoisoindolin-2-yl)acetate], for which, in experiment [1], the “isoTOP-ABPP reactivity ratio at lysine O43747_K214” value is given as 0.9. Moreover, the “isoTOP-ABPP reactivity ratio at lysine Q14CX7_K575” value in experiment [2] came to 1.4.

For `CCn1cc(C(=O)Oc2c(F)c(F)c(F)c(F)c2F)c(=O)c2ccc(C)nc21` [fragment 28, Pentafluorophenyl 1-ethyl-7-methyl-4-oxo-1,4-dihydro-1,8-naphthyridine-3-carboxylate], the “isoTOP-ABPP reactivity ratio at lysine O43747_K214” value in experiment [1] is reported as 1.0. Moreover, the “isoTOP-ABPP reactivity ratio at lysine Q14CX7_K575” value in experiment [2] was 0.8.

`O=C(CCc1cn(-c2ccccc2)nc1-c1ccccc1)Oc1ccc([N+](=O)[O-])cc1[N+](=O)[O-]` [fragment 29, 2,4-Dinitrophenyl 3-(1,3-diphenyl-1H-pyrazol-4-yl)propanoate]: the “isoTOP-ABPP reactivity ratio at lysine O43747_K214” value in experiment [1] is given as 1.0. The “isoTOP-ABPP reactivity ratio at lysine Q14CX7_K575” value in experiment [2] amounted to 1.1.

On to `O=C(Oc1ccc([N+](=O)[O-])cc1[N+](=O)[O-])C(c1ccccc1)c1ccccc1` [fragment 30, 2,4-Dinitrophenyl 2,2-diphenylacetate], for which the “isoTOP-ABPP reactivity ratio at lysine O43747_K214” value in experiment [1] was 1.1. Moreover, the “isoTOP-ABPP reactivity ratio at lysine Q14CX7_K575” value in experiment [2] came out at 4.7.

As to `O=C(Oc1ccc([N+](=O)[O-])cc1[N+](=O)[O-])c1cc(C(F)(F)F)cc(C(F)(F)F)c1` [fragment 31, 2,4-Dinitrophenyl 3,5-bis(trifluoromethyl)benzoate], the “isoTOP-ABPP reactivity ratio at lysine O43747_K214” value in experiment [1] turned out to be 0.9. Moreover, the “isoTOP-ABPP reactivity ratio at lysine Q14CX7_K575” value in experiment [2] was 1.2.

Take `Cn1cc(CC(=O)Oc2ccc([N+](=O)[O-])cc2[N+](=O)[O-])c2ccccc21` [fragment 32, 2,4-Dinitrophenyl 2-(1-methyl-1H-indol-3-yl)acetate]: in experiment [1], the “isoTOP-ABPP reactivity ratio at lysine O43747_K214” value is 6.6. Besides, the “isoTOP-ABPP reactivity ratio at lysine Q14CX7_K575” value in experiment [2] amounted to 2.4.

As for `COc1cc(CCC(=O)Oc2ccc([N+](=O)[O-])cc2[N+](=O)[O-])cc(OC)c1OC` [fragment 33, 2,4-Dinitrophenyl 3-(3,4,5-trimethoxyphenyl)propanoate], the “isoTOP-ABPP reactivity ratio at lysine O43747_K214” value in experiment [1] was determined as 1.7. Also, in experiment [2], the “isoTOP-ABPP reactivity ratio at lysine Q14CX7_K575” value came out at 1.1.

For `O=C(Oc1ccc([N+](=O)[O-])cc1[N+](=O)[O-])C1CCN(C(=O)OCc2ccccc2)CC1` [fragment 34, 1-Benzyl 4-(2,4-dinitrophenyl) piperidine-1,4-dicarboxylate], the “isoTOP-ABPP ratio (R) at liganded lysine O43747_K214” value in experiment [1] came to 1.7.

As for `O=C(Oc1ccc([N+](=O)[O-])cc1[N+](=O)[O-])c1ccc2ccccc2n1` [fragment 35, 2,4-Dinitrophenyl quinoline-2-carboxylate], the “isoTOP-ABPP ratio (R) at liganded lysine O43747_K214” value in experiment [1] is recorded as 1.0. For the same molecule, in experiment [2], the “isoTOP-ABPP ratio (R) at liganded lysine Q14CX7_K575” value worked out at 0.9.

Turning to `O=C(CCc1coc2cc(F)ccc2c1=O)Oc1ccc([N+](=O)[O-])cc1[N+](=O)[O-]` [fragment 36, 2,4-Dinitrophenyl 3-(7-fluoro-4-oxo-4H-chromen-3-yl)propanoate], the “isoTOP-ABPP ratio (R) at liganded lysine O43747_K214” value in experiment [1] was determined as 1.1. Besides, the “isoTOP-ABPP ratio (R) at liganded lysine Q14CX7_K575” value in experiment [2] is 1.5.

For `O=C(Oc1ccc([N+](=O)[O-])cc1[N+](=O)[O-])c1ccc(-c2ccccc2)cc1` [fragment 37, 2,4-Dinitrophenyl [1,1′-biphenyl]-4-carboxylate], in experiment [1], the “isoTOP-ABPP ratio (R) at liganded lysine O43747_K214” value is 0.9. The “isoTOP-ABPP ratio (R) at liganded lysine Q14CX7_K575” value in experiment [2] is 0.9.

In the case of `O=C(CC12CC3CC(CC(C3)C1)C2)Oc1ccc([N+](=O)[O-])cc1[N+](=O)[O-]` [fragment 38, 2,4-Dinitrophenyl 2-(adamantan-1-yl)acetate], the “isoTOP-ABPP ratio (R) at liganded lysine O43747_K214” value in experiment [1] is 0.9.

Turning to `O=C(Oc1ccc([N+](=O)[O-])cc1[N+](=O)[O-])c1ccc(Oc2ccccc2)cc1` [fragment 39, 2,4-Dinitrophenyl 4-phenoxybenzoate], in experiment [1], the “isoTOP-ABPP ratio (R) at liganded lysine O43747_K214” value stood at 0.8. Also, the “isoTOP-ABPP ratio (R) at liganded lysine Q14CX7_K575” value in experiment [2] is on record as 1.0.

As for `O=C(Oc1ccc([N+](=O)[O-])cc1[N+](=O)[O-])c1ccccc1Nc1cccc(C(F)(F)F)c1` [fragment 40, 2,4-Dinitrophenyl 2-((3-(trifluoromethyl)phenyl)amino)benzoate], the “isoTOP-ABPP ratio (R) at liganded lysine O43747_K214” value in experiment [1] is recorded as 0.9. For the same molecule, in experiment [2], the “isoTOP-ABPP ratio (R) at liganded lysine Q14CX7_K575” value stood at 0.8.

With `CC(C)(C)OC(=O)NCCCC(=O)Oc1ccc([N+](=O)[O-])cc1[N+](=O)[O-]` [fragment 41, 2,4-Dinitrophenyl 4-((tert-butoxycarbonyl)amino)butanoate], the “isoTOP-ABPP ratio (R) at liganded lysine O43747_K214” value in experiment [1] was 1.0.

Consider `O=C(Oc1ccc([N+](=O)[O-])cc1[N+](=O)[O-])C(c1ccccc1)(c1ccccc1)c1ccccc1` [fragment 42, 2,4-Dinitrophenyl 2,2,2-triphenylacetate], for which the “isoTOP-ABPP ratio (R) at liganded lysine O43747_K214” value in experiment [1] is recorded as 0.8.

Regarding `CC(=O)Oc1ccc([N+](=O)[O-])cc1[N+](=O)[O-]` [fragment 43, 2,4-Dinitrophenyl acetate], the “isoTOP-ABPP ratio (R) at liganded lysine O43747_K214” value in experiment [1] is listed as 1.1.

With `N#Cc1ccc(C(=O)Oc2ccc([N+](=O)[O-])cc2[N+](=O)[O-])cc1` [fragment 44, 2,4-Dinitrophenyl 4-cyanobenzoate], in experiment [1] (50 uM_231_sol_in vitro), the “isoTOP-ABPP ratio, lysine O43747_K214” value came out at 0.9. Besides, in experiment [2] (50 uM_231_sol_in vitro), the “isoTOP-ABPP ratio, lysine Q14CX7_K575” value is on record as 0.8.

Turning to `O=C(ON1C(=O)CCC1=O)c1cc(C(F)(F)F)cc(C(F)(F)F)c1` [fragment 46, 3,5-Bis(trifluoromethyl)benzoic acid NHS ester], in experiment [1] (50 uM_231_sol_in vitro), the “isoTOP-ABPP ratio, lysine O43747_K214” value was found to be 1.0.

Regarding `O=C(Oc1c(F)c(F)c(C(F)(F)F)c(F)c1F)c1cc(C(F)(F)F)cc(C(F)(F)F)c1` [fragment 47, 2,3,5,6-Tetrafluoro-4-(trifluoromethyl)phenyl 3,5-bis(trifluoromethyl)benzoate], in experiment [1] (50 uM_231_sol_in vitro), the “isoTOP-ABPP ratio, lysine O43747_K214” value worked out at 0.8.

`CC(C)(C)OC(=O)N=C(NC(=O)OC(C)(C)C)n1cccn1` [fragment 50, reference compound]: the “isoTOP-ABPP ratio, lysine O43747_K214” value in experiment [1] (100 uM_231_sol_in vitro) was 1.0.
